The source of these data is patent publication US7977366B2, “Treating an inflammatory disorder or inhibiting respiratory burst in adherent neutrophils with chemical inhibitors of neutrophil activation” (Cornell Research Foundation, Inc., priority 2003, dated 2011).

Structures are written as SMILES.

This test relates to human neutrophils. The test can be described thus: TNF-triggered H2O2 release (respiratory burst) by adherent human neutrophils. The format is cell-based. The protocol: Contaminating erythrocytes were lysed by hypotonic shock for 45 seconds with 0.2% saline.
Briefly, 15,000 compounds were screened to identify specific inhibitors of TNF-triggered H2O2 release in human neutrophils. H2O2 release was measured as above except a few modifications to adapt to high throughput screening. […] Percent inhibition by each compound was calculated using the formula: […]
Briefly, 96-well flat-bottomed plates (Primaria, Falcon) were coated with 50 μl/well of FBS in 5% CO2 at 37° C. for at least 1 h and washed three times with 0.9% saline. Neutrophils (1.5×10^4) were added to triplicate wells containing 100 μl of reaction mixture (2.4 nm scopoletin, 0.5 μg horseradish peroxidase (HRP), and 1 mM NaN3) and stimulated with either buffer control, TNF (PreproTech, London, UK) or phorbol myristate acetate (PMA), each at 100 ng/ml. […] The supernatant from the H2O2 release assay with 1.5×10^4 neutrophils was used to measure degranulation using lactoferrin (LF) or myeloperoxidase (MPO) ELISA kit (Oxis International, Inc., Portland, Oreg.). Spontaneous cell death from the same supernatant was measured using Cytotoxicity Detection Kit (Roche Molecular Biochemicals, Nutley, N.J.). The total cell content of LF, MPO, and lactate dehydrogenase (LDH) was determined after lysing cells with 1% Triton X100. LDH is a cytosolic enzyme whose release indicates cell lysis, such that high release of LF or MPO in the face of low release of LDH is taken as a measure of degranulation.

`CC1=NN(c2ccccc2)C(=O)/C1=C\Nc1cccc2ccc(C)nc12` [Comp II′]: the half-maximal inhibitory concentration (IC50) (Homo sapiens, Neutrophil, 1.5 h, TNF 100 ng/ml, H2O2 release at 90 min, read-out: IC50, TNF triggered H2O2 release) was 22 nM. Moreover, the “Concentration that consistently yielded over 95% inhibition on TNF triggered RB” value (empirically decided for each compound) was 1 µM.

The term IC50 denotes the concentration that gives 50% inhibition.
